Experimental data reported in patent US10759799B2, “Indazole containing macrocycles and therapeutic uses thereof” (Samumed, LLC, priority 2018, dated 2020).

Experiments:
Assay type in all cases: cell-based
IL-6 = IL-6 inhibition in LPS-stimulated human PBMCs (HTRF); conditions: PBMC; for EC50: huPBMCs, LPS 50 ng/mL, 22 hours, IL-6 HTRF
Protocol: Fresh Normal PB MNC (Catalog # PB001, AllCells, Alameda, Calif.) were shipped overnight at 4° C. and resuspended in Roswell Park Memorial Institute (RPMI) 1640 Medium, with GlutaMAX Supplement (Catalog #61870127, ThermoFisher Scientific, Waltham, Mass.) supplemented with 1% Penicillin-Streptomycin (Catalog #15140163, ThermoFisher Scientific, Waltham, Mass.) and 1% fetal bovine serum (FBS) (Catalog #16140089, ThermoFisher Scientific, Waltham, Mass.) assay media.
Compound Screening: Fresh normal human peripheral blood mononuclear cells (huPBMCs) were resuspended in 1% FBS-RPMI assay media with 1% Penicillin-Streptomycin 1% to a cell concentration of 1×10e6 cells/mL. […] 50 ng/mL of Lipopolysaccharides from Escherichia coli 0111:B4 (Catalog # L5293-2ML, Sigma-Aldrich, St. Louis, Mo.) was added after 2 hours and cells were incubated for another 22 hours at 37° C.-5% CO2. After 22 hour incubation, a mixture of anti-IL6 XL665 and anti-IL-6 Cryptate diluted in reconstitution buffer (Catalog #62IL6PEC, Cisbio Inc., Bedford, Mass.) was added to each well. Following incubation for 3 hours at room temperature, Homogeneous Time-Resolved Fluorescence (HTRF) was measured using the Envision (Perkin Elmer, Shelton, Conn.) at 665 nm and […]. The ratio of fluorescence at 665 nm to 620 nm was used as a readout for IL-6 quantification. All samples were processed in duplicate. Readings were normalized to DMSO treated cells and normalized activities were utilized for EC50 calculations. EC50 was determined using software generated by Dotmatics Limited (Windhill Bishops Stortford Herts, UK) using the Levenberg-Marquardt 4 parameter fitting procedure with finite different gradients.

[1] = system: Wnt activity (Sp5-Luc reporter, SW480 colon carcinoma cells); assay: Sp5-Luc reporter gene screening assay for Wnt activity in SW480 cells; conditions: Homo sapiens; Sp5-Luc reporter, SW480 cells, 36 to 48 hours
From the text: The screening assay for Wnt activity is described as follows. Reporter cell lines can be generated by stably transducing cancer cell lines (e.g., colon cancer) or primary cells (e.g., IEC-6 intestinal cells) with a lentiviral construct that includes a Wnt-responsive promoter driving expression of the firefly luciferase gene.
SW480 colon carcinoma cells were transduced with a lentiviral vector expressing luciferase with a human Sp5 promoter consisting of a sequence of eight TCF/LEF binding sites. SW480 cells stably expressing the Sp5-Luc reporter gene and a hygromycin resistance gene were selected by treatment with 150 μg/mL of hygromycin for 7 days. These stably transduced SW480 cells were expanded in cell culture and used for all further screening activities. […] For Sp5-Luc reporter gene assays, the cells were plated at 4,000 cells/well in 384-well plates with a DMEM medium containing 1% fetal bovine serum, and 1% Penicillin-Streptomycin and incubated for 36 to 48 hours at 37° C. and 5% CO2. Following incubation, 15 μl of BriteLite Plus luminescence reagent (Perkin Elmer) was added to each well of the 384-well assay plates. The plates were placed on an orbital shaker for 2 min and then luminescence was quantified using the Envision (Perkin Elmer) plate reader. Readings were normalized to DMSO only treated cells, and normalized activities were utilized for EC50 calculations using the dose-response log (inhibitor) vs. response-variable slope (four parameters) nonlinear regression feature available in GraphPad Prism 5.0 (or Dotmatics).

[2] = system: primary human mesenchymal stem cells (hMSCs); assay: Chondrogenesis induction in hMSCs (Rhodamine B staining intensity, EC50); conditions: 6 days, Rhodamine B staining intensity of nodules
From the text: Representative compounds were screened using primary human mesenchymal stem cells (hMSCs) to determine their ability to induce chondrogenesis (process by which cartilage is developed).
Primary human mesenchymal stem cells (hMSCs) were purchased from Lonza (Walkersville, Md.) and expanded in Mesenchymal Stem Cell Growth Media (Lonza). Cells between passage 2 and 4 were used for the experiments.
To image chondrogenic nodules, the cells were fixed using 4% formaldehyde (Electron Microscopy Sciences), and stained with 2 μg/mL Rhodamine B (Sigma-Aldrich) and 20 μM Nile Red (Sigma-Aldrich) [Johnson K., et. al, A Stem Cell-Based Approach to Cartilage Repair, Science, (2012), 336(6082). […] Rhodamine B staining intensity of nodules in each well was normalized to the average of 3 DMSO treated wells on the same plate using Excel (Microsoft Inc.). The normalized averages (fold change over DMSO) of 3 replicate wells for each compound concentration were calculated. EC50 values were calculated using non-linear regression curve fitting in Prism 8 (Graphpad Inc.). Due to solubility limitations of some of the compounds, curve fitting was incomplete, and the highest observed activity was extrapolated to the insoluble doses for accurate EC50 determinations.
EC50 values are reported. Further, using TGF-β3 as a positive control, the concentration of representative compounds required to induce equivalent levels of chondrogenesis is reported. In addition, the maximum activity of each compound and the respective dose that each compound reached maximum chondrogenesis activity is reported.

[3] = system: primary human fibroblasts derived from IPF patients (LL29 cells); assay: Inhibition of TGF-β1 induced fibrosis (αSMA staining) in LL29 fibroblasts; conditions: Fibroblast, 96 h, LL29 cells, TGF-β1 20 ng/mL, 4 days, % αSMA positive cells
Protocol: Representative compounds were screened using primary human fibroblasts (derived from IPF patients) treated with TGF-β1 to determine their ability to inhibit the fibrotic process.
LL29 cells were plated at 1,500 cells/well in 70 μL/well F12 medium supplemented with 1% Fetal Bovine Serum. […] Wells treated with TGF-β1 and containing DMSO were used as positive control, and cells with only DMSO were negative control. […] Following incubation for 4 days, SYTOX green nucleic acid stain (Life Technologies [Thermo Fisher Scientific]) was added to the wells at a final concentration of 1 μM and incubated at room temperature for 30 min.

[4] = system: SW480 colon carcinoma cells; assay: Cell viability assay (CellTiter-Glo) in SW480 cells; conditions: Homo sapiens, 96 h; SW480 cell viability, four days, CellTiter-Glo
Protocol: Representative compounds were screened using the assay procedure to assess the effect on cell viability as described below.
SW480 colon carcinoma cells were transduced with a lentiviral vector expressing luciferase with a human Sp5 promoter consisting of a sequence of eight TCF/LEF binding sites. SW480 cells stably expressing the Sp5-Luc reporter gene and a hygromycin resistance gene were selected by treatment with 150 μg/mL of hygromycin for 7 days. These stably transduced SW480 cells were expanded in cell culture and used for all further screening activities.
For the Cell Viability Assays, the cells were plated at 2,000 cells/well in 384-well plates with a DMEM medium containing 1% fetal bovine serum, and 1% Penicillin-Streptomycin and incubated for […] at 37° C. and 5% CO2. Eight replicates of DMSO-treated cells served as controls and cells treated with compound were performed in duplicate.
After incubation, 10 μL of CellTiter-Glo (Promega) was added to each well allowed to incubate for approximately 12 minutes. This reagent “results in cell lysis and generation of a luminescent signal proportional to the amount of ATP present. The amount of ATP is directly proportional to the number of cells present in culture, in agreement with previous reports. The CellTiter-Glo Assay generates a “glow-type” luminescent signal, produced by the luciferase reaction (Promega.com)”.

SMILES	EC50 (IL-6)	inhibition at 10 µM (IL-6; read-out: percent inhibition at 10 μM)	EC50 [1]	EC50 [2]	EC50 [3]	EC50 [4]
O=C1CCc2cccc(c2)-c2cncc3[nH]c(nc23)-c2n[nH]c3ccc(cc23)-c2cncc(c2)N1 [Compound 3, (Z)-2^3H,3^1H-5-Aza-2(7,2)-imidazo[4,5-c]pyridina-3 (3,5)-indazola-4(3,5)-pyridina-1(1,3)-benzenacyclooctaphan-6-one]	> 10000 nM	43.7%	52 nM	28 nM	42 nM	2760 nM
c1cc2cc(c1)-c1cccc3[nH]c(nc13)-c1n[nH]c3ccc(cc13)-c1cncc(c1)CNC2 [Compound 10, (Z)-2^1H,3^1H-6-Aza-2(5,3),3(2,4)-diindazola-1(3,5)-pyridina-4(1,3)-benzenacycloheptaphane]	135 nM		11 nM	10 nM	9980 nM	26 nM
CN1Cc2cccc(c2)-c2cccc3[nH]c(nc23)-c2n[nH]c3ccc(cc23)-c2cnn(C)c2C1 [Compound 29]	241 nM		82 nM	69 nM	77 nM	170 nM
c1cc2cc(c1)-c1cccc3[nH]c(nc13)-c1n[nH]c3ccc(cc13)-c1cncc(c1)OCCC2 [Compound 57]	3010 nM		475 nM	25 nM	637 nM	670 nM
CN1CCCCN(C)c2nccc3[nH]c(nc23)-c2n[nH]c3ccc(cc23)-c2cncc(c2)C1 [Compound 51, (Z)-5,10-Dimethyl-1H,2^1H-5,10-diaza-1(2,4)-imidazo[4,5-c]pyridina-2(3,5)-indazola-3(3,5)-pyridinacyclodecaphane]	414 nM		577 nM	93 nM	203 nM	515 nM
